Results taken from patent publication US6552078B2, “6-methoxy-2-naphthylacetic acid prodrugs” (priority 1999, dated 2003).

How the values were obtained:
Rat Paw Edema = assay: Rat Paw Edema; assay type: in vivo; conditions: Dose (mg/kg): Example 11 80; Example 12 121
Chemical Hydrolysis = assay type: physicochemical
[1] = In Vitro Hydrolysis in Rat Plasma; assay type: in vitro ADME

SMILES | Rat Paw Edema % Inhibition (Rat Paw Edema) [%] | half-life (Chemical Hydrolysis; pH 3) [h] | half-life (Chemical Hydrolysis; pH 7.4) [h] | half-life (Chemical Hydrolysis; pH 8) [h] | metabolised at 2 h ([1]; in ˜2 h, column head pH 3, read-out: In Vitro Hydrolysis in Rat Plasma: conversion to 6-MNA) [%] | half-life ([1]; column head pH 3, read-out: In Vitro Hydrolysis in Rat Plasma: T1/2) [min]
COc1ccc2cc(CC(=O)NO)ccc2c1 [Example 11, N-Hydroxy-2-(6-methoxy-naphthalen-2-yl)-acetamide] | 59.6 | – | – | – | – | –
COc1ccc2cc(CC(=O)OCC(C)=O)ccc2c1 [Example 1, (6-methoxy-naphthalen-2-yl)-acetic acid 2-oxo-propyl ester] | – | > 25 | 22 | 7 | 21 | –
COc1ccc2cc(CC(=O)OCCOCCO[N+](=O)[O-])ccc2c1 [Example 2, (6-Methoxy-naphthalen-2-yl)-acetic acid 2-(2-nitrooxy-ethoxy)-ethyl ester] | – | > 300 | ~280 | ~280 | – | > 5
